Measured values reported in patent publication US6995135B2, “Peptides and peptidomimetics having anti-proliferative activity and/or that augment nucleic acid damaging agents or treatments” (priority 2002, dated 2006).
Entries after “also recorded” stand apart in the source; their conditions may differ. Square brackets hold non-standard residues; d marks the D form. Peptide text beside a SMILES is read from it. dPhe(F5) = N[C@H](Cc1c(F)c(F)c(F)c(F)c1F)C(=O)O; dBpa = N[C@H](Cc1ccc(C(=O)c2ccccc2)cc1)C(=O)O; dCha = N[C@H](CC1CCCCC1)C(=O)O

Columns and labels:
[1] = tested on: MIAPaCa2 human pancreatic carcinoma cells; assay: Colony formation analysis of MIAPaCa2 cells; type: cell-based; conditions: CBP501 with cisplatin or oxaliplatin (1, 3 or 9 μg/ml), three hours then 10 days
Description: Briefly, cells were plated at 300 cells/well in 6 well plates, incubated overnight, and treated with the compounds for three hours. The medium was changed and cultured for an additional 10 days. Cells were subsequently fixed with 70% methanol, stained with 0.1% crystal violet and visualized.

HUVEC [2] = assay: Growth of normal human umbilical endothelial cells (HUVEC); type: cell-based
Description: Similar studies were performed using normal human umbilical endothelial cells (HUVEC).

Jurkat cells [3] = assay: M phase checkpoint abrogation / non specific toxicity in colchicine treated Jurkat cells, flow cytometry; type: cell-based; conditions: 0.5 μg/ml colchicine, up to 50 μM of peptide, FIG. 12
Description: Cell-cycle analysis The cell cycle status of the cells treated with bleomycin or adriamcin were analyzed by flow cytometry as described by Kawabe (1997) Nature 385:454–458. In brief, two million cells were re-suspended and incubated in 200 μul Krishan's solution (0.1% Sodium citrate, 50 μg/ml PI, 20 μg/ml RNase A and 0.5% NP-40) for 1 hr at 4° C. and analyzed by a flow cytometry, FACScan™ (Beckton Dickinson, Mountain View, Calif.) with the program CELLQuest™ (Beckton Dickinson).
Flow cytometry analysis of M phase checkpoint abrogation by the compounds was performed using human T cell leukemia Jurkat cell line treated with colchicine (5 μg/ml or 0.5 μg/ml) and various doses of peptide/peptidomimetics for 24 hr (FIG. 12). The DNA of the cells was stained and analyzed by flow cytometry as described above.
The “Appearance of side effect when used alone” indicates the peptide/peptidomimetic dose that produced Jurkat cell cycle disturbance, i.e., the appearance of significant amounts of SubG1 cells (dead cells) or cells in which the DNA content of each varies more than usual. […]
A comparison between G2 checkpoint abrogating activity and non specific toxicity (M checkpoint abrogation) by CB501 was performed. […] The DNA amount in each of the treated cells was analyzed by flow cytometry, as previously described.

MIAPaCa2 [4] = assay: Sensitization of MIAPaCa2 to bleomycin or adriamycin, % sub-G1 cells by flow cytometry; type: cell-based, human; conditions: bleomycine 10 μg/ml or adriamycin 1 μg/ml, 3 hours then 21 hours
Description: Cell culture A human T-cell leukemia-derived cell line, Jurkat, was cultured in RPMI 1640 (Sigma) supplemented with 10% fetal calf serum (IBL: Immuno-Biological Laboratories, Gunma, Japan) at 37° C./5% CO2. Human pancreatic cancer derived cell line, MIAPaCa2 was cultured in DMEM with 10% fetal calf serum at 37° C./5% CO2.
The G2 checkpoint abrogating activity of various compounds at different doses on human pancreatic cancer derived cell line MIAPaCa2 treated with bleomycine (Bleo) or adriamycin (ADR) was studied. Briefly, cells were incubated with the compounds and bleomycine (10 μg/ml) or adriamycin (1 μg/ml) for 3 hours. The medium was changed and incubated for an additional 21 hours. Harvested cells were stained for DNA by propium iodide and analyzed with flow cytometry as previously described. The % of the sub-G1 cell population is indicated as dead cells in FIG. 3.

MIAPaCa2 [5] = assay: Growth inhibition analysis of MIAPaCa2 using alamar blue; type: cell-based, human
Description: The medium was changed and incubated an additional 24, 48 or 72 hour. Following incubation, 20 μl of alamarBlue 90% reagent was added to each well for another 6 hours for detection of cell viability by fluorescent intensity. Fluorescent intensity was measured using a Spectrafluor Plus plate reader with exitation 530 nm and emission 590 nm. The IC50 was calculated (Table 6).

[6] = Mouse serum treatment analysis, residual peptide by HPLC; type: in vitro ADME; conditions: 1 hr at 37 degree, read-out: Residual peptide after 1 hr human serum treatment (Mouse serum treatment analysis)
Jurkat cells [7] = assay: G2 checkpoint abrogation in bleomycin treated Jurkat cells, flow cytometry; type: cell-based, human; conditions: Jurkat cells; with 40 μg/ml bleomycine, 24 hours; dose with detectable G2 checkpoint abrogation
Description: Flow cytometry analysis of G2 checkpoint abrogation was performed using human leukemia derived Jurkat cell line. In brief, cultured cells were treated with various doses of peptide/peptidomimetic and 40 μg/ml bleomycine for 24 hr. The DNA of the cells was stained with propidium iodide and analyzed by flow cytometry.
The “Appearance of side effect when used alone” indicates the peptide/peptidomimetic dose that produced Jurkat cell cycle disturbance, i.e., the appearance of significant amounts of SubG1 cells (dead cells) or cells in which the DNA content of each varies more than usual. […] The “G2 abrogating dose” indicates the peptide/peptidomimetic dose with 40 μg/ml bleomycine that produced detectable G2 checkpoint abrogation activity following treatment for 24 hours. The “Appearance of side effect when used with colchicine” indicates the peptide/peptidomimetic dose with 5 μg/ml colchicine that produced Jurkat cell cycle disturbance following treatment for 24 hours.

HUVEC [8] = assay: G2 checkpoint abrogation with cis-platin, flow cytometry; type: cell-based, human; conditions: normal G1 checkpoint, at least up to 50 μM CBP501
Description: The medium was aspirated, fresh medium without these compounds was added and the cells were incubated for an additional 45 hr. The cells including floating cells were harvested using trypsin-EDTA solution, incubated with Krishan's solution and analyzed for DNA content by flow cytometry as previously described.

[9] = tested on: MIAPaCa2 human pancreatic carcinoma cells; assay: MIAPaCa2 human pancreatic carcinoma subcutaneous tumor in scid mice; type: in vivo, mouse
Description: To study in vivo efficacy of the compounds, MIAPaCa2 human pancreatic carcinoma cells were implanted subcutaneously in scid mice. The treatment was initiated when the size of the primary tumor became 0.1 cm3 (Day0) or larger, e.g., 7 or 8 mm in diameter. CDDP (3 mg/kg) and CBP 501 (10 or 40 mg/kg) were intra-peritoneally administered alone or in combination. Tumor sizes were measured using calipers three times a week, and volumes were calculated using the formula: weight(mg)=[width (mm)2×length (mm)]/2. Mean tumor sizes for each treatment group are plotted (n=4) against the days after the start of treatment (FIG. 10).

[10] = Human serum treatment analysis, residual G2 checkpoint abrogating activity; type: in vitro ADME; conditions: d-type amino acid peptides compared with l-type peptide such as CBP413
Description: Serum analysis was performed to determine the stability of peptides in mouse and human serum. Briefly, peptides (10 mM or 2.5 mM) were incubated with freshly prepared human serum at 37 degrees for 1 hr. CBP50 (10 mM) was incubated with freshly prepared mouse serum for 1 hr at 37 degree. Jurkat cells were treated with the serum with or without peptides and bleomycin (40 μg/ml) and incubated for 24 hr. The population of G2 phase cells was determined by flow cytometry as previously described. The residual G2 checkpoint abrogating activity of serum treated peptides were determined by comparing the % G2 cells of the treated serum and the standard curve produced with medium treated peptides, bleomycin and Jurkat cells (Table 5A).

N=C(N)NCCC[C@@H](NC(=O)[C@@H](CCCNC(=N)N)NC(=O)[C@@H](CCC(N)=O)NC(=O)[C@@H](CCCNC(=N)N)NC(=O)[C@@H](CCCNC(=N)N)NC(=O)[C@@H](CCCNC(=N)N)NC(=O)[C@@H](CC1CCCCC1)NC(=O)[C@@H](Cc1c(F)c(F)c(F)c(F)c1F)NC(=O)[C@@H](CO)NC(=O)[C@@H](Cc1c[nH]c2ccccc12)NC(=O)[C@@H](CO)NC(=O)[C@H](N)Cc1ccc(C(=O)c2ccccc2)cc1)C(=O)O [CBP501, (d-Bpa)(d-Ser)(d-Trp)(d-Ser)(d-Phe-2,3,4,5,6-F)(d-Cha)(d-Arg)(d-Arg)(d-Arg)(d-Gln)(d-Arg)(d-Arg)] (H-[dBpa][dS][dW][dS][dPhe(F5)][dCha][dR][dR][dR][dQ][dR][dR]-OH; N-terminus and C-terminus assumed)
Effect on cyto-toxic activity of cisplatin and oxaliplatin, colony formation (in words) [1]: enhanced the cyto-toxic activity of both cisplatin and oxaliplatin
Effect on growth of HUVEC cells, peptide alone (in words) (HUVEC [2]): does not affect the growth of HUVEC cells
Non specific toxicity (M checkpoint abrogation) (in words) (Jurkat cells [3]): absent; also recorded: does not affect M phase cell cycle arrest and/or non specific toxicity induced by colchicine
Solubility in water (in words) (Solubility in water): soluble in water
Sensitization of MIAPaCa2 cells to bleomycin and adriamycin (% sub-G1, in words) (MIAPaCa2 [4]): sensitized MIAPaCa2 cells to both bleomycin and adriamycin in a dose dependent manner
Cell growth inhibition alone (in words) (MIAPaCa2 [5]; compared with cisplatin): inhibits cell growth better than cisplatin in molar dose
Cell growth suppression combined with 10 μM of cisplatin (in words) (MIAPaCa2 [5]; with 10 μM cisplatin): suppressed cell growth at a much lower dose
remaining at 1 h, 10 mM [6]: > 90%
G2 abrogating dose (Jurkat cells [7]): ≧0.39 μM
Sensitization of HUVEC cells to cisplatin (in words) (HUVEC [8]): not sensitized
Tumor growth, CBP501 treatment alone (in words) ([9]; CBP501 10 or 40 mg/kg intra-peritoneal): suppresses the growth of human pancreatic cancer cell in vivo
Anti-tumor activity of cisplatin in combination (in words) ([9]; CDDP 3 mg/kg with CBP501 10 or 40 mg/kg intra-peritoneal): increased the anti-tumor activity of cisplatin
Stability in serum (in words) [10]: more stable in serum
